Data reported in patent publication US20260250290A1 (BRISTOL-MYERS SQUIBB COMPANY, priority 2023, published 2026).
Structures can show the parent of a compound that is named as a salt.

molecular target: T1, full length SGK1 (Homo sapiens, UniProt O00141); assay: SGK1 inhibition Assay A (Caliper LabChip electrophoretic separation of fluorescent peptide substrate and phosphorylated product); type: biochemical; conditions: Assay A; 20 μM ATP, 40 min incubation; read-out: SGK1 IC50
T1 construct: 125 μM full length SGK1 (Life Technologies Part #PR7358A); purchased Life Technologies PR7358A
T1 sequence (O00141 1-431): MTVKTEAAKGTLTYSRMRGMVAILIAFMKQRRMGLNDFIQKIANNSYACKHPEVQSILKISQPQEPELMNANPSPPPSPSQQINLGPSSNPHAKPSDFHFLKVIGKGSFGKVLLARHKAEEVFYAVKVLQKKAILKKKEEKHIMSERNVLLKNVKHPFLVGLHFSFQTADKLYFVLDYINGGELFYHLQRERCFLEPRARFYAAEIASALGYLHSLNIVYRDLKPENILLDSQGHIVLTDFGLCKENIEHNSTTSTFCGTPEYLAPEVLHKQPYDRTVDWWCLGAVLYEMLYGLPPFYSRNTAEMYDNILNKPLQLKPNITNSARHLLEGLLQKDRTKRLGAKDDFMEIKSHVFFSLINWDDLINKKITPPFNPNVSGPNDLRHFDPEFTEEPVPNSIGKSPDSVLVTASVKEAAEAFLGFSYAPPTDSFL

SMILES	IC50 [nM]
COC(=O)N1CC=C(c2cc(N3CCC[C@@H](NC(=O)c4sc(Cl)cc4OCCN4CCOCC4)C3)c3c(N)ncnn23)C1 [Example 185, methyl (R)-3-(4-amino-5-(3-(5-chloro-3-(2-morpholinoethoxy)thiophene-2-carboxamido)piperidin-1-yl)pyrrolo[2,1-f][1,2,4]triazin-7-yl)-2,5-dihydro-1H-pyrrole-1-carboxylate, 2 TFA]	43
CN(C)CCOc1cc(Cl)sc1C(=O)N[C@@H]1CCCN(c2cc(-c3ccn4nnnc4c3)n3ncnc(N)c23)C1 [Example 186, (R)—N-(1-(4-amino-7-(tetrazolo[1,5-a]pyridin-7-yl)pyrrolo[2,1-f][1,2,4]triazin-5-yl)piperidin-3-yl)-5-chloro-3-(2-(dimethylamino)ethoxy)thiophene-2-carboxamide]	3
CN(C)CCOc1cc(Cl)sc1C(=O)N[C@@H]1CCCN(c2cc(-c3ccc(-n4cnnn4)cc3)n3ncnc(N)c23)C1 [Example 187, (R)-N-(1-(7-(4-(1H-tetrazol-1-yl)phenyl)-4-aminopyrrolo[2,1-f][1,2,4]triazin-5-yl)piperidin-3-yl)-5-chloro-3-(2-(dimethylamino)ethoxy) thiophene-2-carboxamide, 2 TFA]	6
CN(C)CCOc1cc(Cl)sc1C(=O)N[C@@H]1CCCN(c2cc(-c3ccc(-n4cnnn4)c(F)c3)n3ncnc(N)c23)C1 [Example 188]	4
CN(C)CCOc1cc(Cl)sc1C(=O)N[C@@H]1CCCN(c2cc(-c3ccc(C(F)F)nc3)n3ncnc(N)c23)C1 [Example 189, (R)-N-(1-(4-amino-7-(6-(difluoromethyl)pyridin-3-yl)pyrrolo[2,1-f][1,2,4]triazin-5-yl)piperidin-3-yl)-5-chloro-3-(2-(dimethylamino)ethoxy) thiophene-2-carboxamide]	2
CN(C)CCOc1cc(Cl)sc1C(=O)N[C@@H]1CCCN(c2cc(-c3ccc(-n4cncn4)nc3)n3ncnc(N)c23)C1 [Example 190, (R)-N-(1-(7-(6-(1H-1,2,4-triazol-1-yl)pyridin-3-yl)-4-aminopyrrolo[2,1-f][1,2,4]triazin-5-yl)piperidin-3-yl)-5-chloro-3-(2-(dimethylamino)ethoxy) thiopbene-2-carboxamide]	19
CN(C)CCOc1cc(Cl)sc1C(=O)N[C@@H]1CCCN(c2cc(-c3ccc(-n4cnc(C#N)n4)nc3)n3ncnc(N)c23)C1 [Example 191, (R)-N-(1-(4-amino-7-(6-(3-cyano-1H-1,2,4-triazol-1-yl)pyridin-3-yl)pyrrolo[2,1-f][1,2,4]triazin-5-yl)piperidin-3-yl)-5-chloro-3-(2-(dimethylamino)ethoxy) thiophene-2-carboxamide]	6
CN(C)CCOc1cc(Cl)sc1C(=O)N[C@@H]1CCCN(c2cc(-c3ccc4nnnn4c3)n3ncnc(N)c23)C1 [Example 192, (R)-N-(1-(4-amino-7-(tetrazolo[1,5-a]pyridin-6-yl)pyrrolo[2,1-f][1,2,4]triazin-5-yl)piperidin-3-yl)-5-chloro-3-(2-(dimethylamino)ethoxy) thiophene-2-carboxamide]	10
CN(C)CCOc1cc(Cl)sc1C(=O)N[C@@H]1CCCN(c2cc(-c3ccc4ncnn4c3)n3ncnc(N)c23)C1 [Example 193, (R)-N-(1-(7-([1,2,4]triazolo{1,5-a]pyridin-6-yl)-4-aminopyrrolo[2,1-f][1,2,4]triazin-5-yl)piperidin-3-yl)-5-chloro-3-(2-(dimethylamino)ethoxy) thiophene-2-carboxamide]	25
Cc1ccc(C(=O)N[C@@H]2CCCN(c3c(Br)c(-c4ccc(S(C)(=O)=O)cc4)n4ncnc(N)c34)C2)s1 [Example 194, N-[(3R)-1-[4-amino-6-bromo-7-(4-methanesulfonylphenyl)pyrrolo[2,1-f][1,2,4]triazin-5-yl]piperidin-3-yl]-5-methylthiophene-2-carboxamide]	188
Cc1ccc(C(=O)N[C@@H]2CCCN(c3c(Cl)c(-c4ccc(S(C)(=O)=O)cc4)n4ncnc(N)c34)C2)s1 [Example 195, N-[(3R)-1-[4-amino-6-chloro-7-(4-methanesulfonylphenyl)pyrrolo[2,1-f][1,2,4]triazin-5-yl]piperidin-3-yl]-5-methylthiophene-2-carboxamide]	107
CS(=O)(=O)c1ccc(-c2c(Cl)c(N3CCC[C@@H](NC(=O)c4ccncc4)C3)c3c(N)ncnn23)cc1 [Example 196, N-[(3R)-1-[4-amino-6-chloro-7-(4-methanesulfonylphenyl)pyrrolo[2,1-f][1,2,4]triazin-5-yl]piperidin-3-yl]pyridine-4-carboxamide]	222
Cc1ccc(C(=O)N[C@@H]2CCCN(c3c(C#N)c(-c4ccc(S(C)(=O)=O)cc4)n4ncnc(N)c34)C2)s1 [Example 197, N-[(3R)-1-[4-amino-6-cyano-7-(4-methanesulfonylphenyl)pyrrolo[2,1-f][1,2,4]triazin-5-yl]piperidin-3-yl]-5-methylthiophene-2-carboxamide]	30
Cc1cc(N2CCOCC2)c(C(=O)N[C@@H]2CCCN(c3cc(-c4ccnc(F)c4)n4ncnc(N)c34)C2)s1 [Example 198, (R)—N-(1-(4-amino-7-(2-fluoropyridin-4-yl)pyrrolo[2,1-f][1,2,4]triazin-5-yl)piperidin-3-yl)-5-methyl-3-morpholinothiophene-2-carboxamide, 2 TFA]	2
Cc1cc(N2CCN(C)CC2)c(C(=O)N[C@@H]2CCCN(c3cc(-c4ccnc(F)c4)n4ncnc(N)c34)C2)s1 [Example 199, (R)—N-(1-(4-amino-7-(2-fluoropyridin-4-yl)pyrrolo[2,1-f][1,2,4]triazin-5-yl)piperidin-3-yl)-5-methyl-3-(4-methylpiperazin-1-yl)thiophene-2-carboxamide, 3 TFA]	2
Cc1cc(CN2CCN(C)CC2)c(C(=O)N[C@@H]2CCCN(c3cc(-c4ccnc(F)c4)n4ncnc(N)c34)C2)s1 [Example 200, (R)—N-(1-(4-amino-7-(2-fluoropyridin-4-yl)pyrrolo[2,1-f][1,2,4]triazin-5-yl)piperidin-3-yl)-5-methyl-3-((4-methylpiperazin-1-yl)methyl)thiophene-2-carboxamide]	15
Cc1cc(COCCN2CCOCC2)c(C(=O)N[C@@H]2CCCN(c3cc(-c4ccnc(F)c4)n4ncnc(N)c34)C2)s1 [Example 201, (R)—N-(1-(4-amino-7-(2-fluoropyridin-4-yl)pyrrolo[2,1-f][1,2,4]triazin-5-yl)piperidin-3-yl)-5-methyl-3-((2-morpholinoethoxy)methyl)thiophene-2-carboxamide, 2 TFA]	3
Cc1cc(CO)c(C(=O)N[C@@H]2CCCN(c3cc(-c4ccnc(F)c4)n4ncnc(N)c34)C2)s1 [Example 202, (R)—N-(1-(4-amino-7-(2-fluoropyridin-4-yl)pyrrolo[2,1-f][1,2,4]triazin-5-yl)piperidin-3-yl)-3-(hydroxymethyl)-5-methylthiophene-2-carboxamide]	12
Cn1cc(-c2cc(N3CCC[C@@H](NC(=O)c4ccc(Cl)s4)C3)c3c(N)ncnn23)c(C2CC2)n1 [Example 203, (R)—N-(1-(4-amino-7-(3-cyclopropyl-1-methyl-1H-pyrazol-4-yl)pyrrolo[2,1-f][1,2,4]triazin-5-yl)piperidin-3-yl)-5-chlorothiophene-2-carboxamide, TFA]	19
CC(=O)c1ccc(-c2cc(N3CCC[C@@H](NC(=O)c4ccc(Cl)s4)C3)c3c(N)ncnn23)cc1 [Example 204, (R)-N-(1-(7-(4-acetylphenyl)-4-aminopyrrolo[2,1-f][1,2,4]triazin-5-yl)piperidin-3-yl)-5-chlorothiophene-2-carboxamide, TFA]	5
Nc1ncnn2c(-c3ccnc4[nH]ccc34)cc(N3CCC[C@@H](NC(=O)c4ccc(Cl)s4)C3)c12 [Example 205, (R)-N-(1-(4-amino-7-(1H-pyrrolo[2,3-b]pyridin-4-yl)pyrrolo[2,1-f][1,2,4]triazin-5-yl)piperidin-3-yl)-5-chlorothiophene-2-carboxamide, TFA]	7
Nc1ncnn2c(-c3cc(F)c(O)c(F)c3)cc(N3CCC[C@@H](NC(=O)c4ccc(Cl)s4)C3)c12 [Example 206, (R)-N-(1-(4-amino-7-(3,5-difluoro-4-hydroxyphenyl)pyrrolo [2,1-f][1,2,4]triazin-5-yl)piperidin-3-yl)-5-chlorothiophene-2-carboxamide]	12
COc1cc(-c2cc(N3CCC[C@@H](NC(=O)c4ccc(Cl)s4)C3)c3c(N)ncnn23)ccc1C(N)=O [Example 207, (R)-N-(1-(4-amino-7-(4-carbamoyl-3-methoxyphenyl)pyrrolo [2,1-f][1,2,4]triazin-5-yl)piperidin-3-yl)-5-chlorothiophene-2-carboxamide]	4
CC(=O)Nc1cccc(-c2cc(N3CCC[C@@H](NC(=O)c4ccc(Cl)s4)C3)c3c(N)ncnn23)c1 [Example 208, (R)-N-(1-(7-(3-acetamidophenyl)-4-aminopyrrolo[2,1-f][1,2,4]triazin-5-yl)piperidin-3-yl)-5-chlorothiophene-2-carboxamide]	20
Cn1nccc1-c1cc(N2CCC[C@@H](NC(=O)c3ccc(Cl)s3)C2)c2c(N)ncnn12 [Example 210, (R)-N-(1-(4-amino-7-(1-methyl-1H-pyrazol-5-yl)pyrrolo[2,1-f][1,2,4]triazin-5-yl)piperidin-3-yl)-5-chlorothiophene-2-carboxamide, TFA]	9
